Paper PMC6199744, “Development of Chemical Proteomics for the Folateome and Analysis of the Kinetoplastid Folateome” (ACS Infectious Diseases, 2018)
Read-outs that look alike come from different tables or passages of the source.

Experiments:
Assay type in all cases: binding
[1] = molecular target: T1, HeLa cell extract proteins (Homo sapiens, UniProt P07814)
T1 construct: endogenous in cells; host or cells: HeLa cell extract

[2] = molecular target: T2, HeLa cell extract proteins (Homo sapiens, UniProt P62820)
T2 construct: endogenous in cells; host or cells: HeLa cell extract

[3] = molecular target: T3, HeLa cell extract proteins (Homo sapiens, UniProt O43865)
T3 construct: endogenous in cells; host or cells: HeLa cell extract

[4] = molecular target: T4, HeLa cell extract proteins (Homo sapiens, UniProt Q53R41)
T4 construct: endogenous in cells; host or cells: HeLa cell extract
T4 sequence (Q53R41 1-847): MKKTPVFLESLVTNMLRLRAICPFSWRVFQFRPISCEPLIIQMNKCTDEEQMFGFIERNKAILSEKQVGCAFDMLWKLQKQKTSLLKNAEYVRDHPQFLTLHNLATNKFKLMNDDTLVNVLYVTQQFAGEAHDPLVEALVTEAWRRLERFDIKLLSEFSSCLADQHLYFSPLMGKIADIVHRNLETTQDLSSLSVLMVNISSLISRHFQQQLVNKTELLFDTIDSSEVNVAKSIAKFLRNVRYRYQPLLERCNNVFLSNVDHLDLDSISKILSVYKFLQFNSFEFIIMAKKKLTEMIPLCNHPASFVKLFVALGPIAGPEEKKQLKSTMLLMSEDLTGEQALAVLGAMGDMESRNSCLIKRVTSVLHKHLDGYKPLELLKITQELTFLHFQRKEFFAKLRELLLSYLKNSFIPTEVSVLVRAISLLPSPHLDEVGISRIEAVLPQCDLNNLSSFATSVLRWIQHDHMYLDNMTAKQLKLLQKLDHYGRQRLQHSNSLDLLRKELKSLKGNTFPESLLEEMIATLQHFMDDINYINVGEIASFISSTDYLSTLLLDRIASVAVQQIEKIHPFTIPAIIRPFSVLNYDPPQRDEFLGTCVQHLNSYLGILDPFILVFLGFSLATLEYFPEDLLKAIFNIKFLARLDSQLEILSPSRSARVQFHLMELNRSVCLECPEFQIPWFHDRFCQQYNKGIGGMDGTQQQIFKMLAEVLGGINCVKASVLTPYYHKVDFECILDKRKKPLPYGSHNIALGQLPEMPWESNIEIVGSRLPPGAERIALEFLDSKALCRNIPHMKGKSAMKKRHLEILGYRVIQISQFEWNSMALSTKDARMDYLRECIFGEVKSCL

[5] = molecular target: T5, HeLa cell extract proteins (Homo sapiens, UniProt P40616)
T5 construct: endogenous in cells; host or cells: HeLa cell extract
T5 sequence (P40616 1-181): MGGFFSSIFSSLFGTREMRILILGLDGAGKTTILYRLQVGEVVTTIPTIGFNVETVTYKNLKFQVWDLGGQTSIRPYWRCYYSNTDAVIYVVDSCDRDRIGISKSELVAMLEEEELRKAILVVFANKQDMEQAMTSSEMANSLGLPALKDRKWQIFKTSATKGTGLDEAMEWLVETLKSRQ

[6] = molecular target: T6, HeLa cell extract proteins (Homo sapiens, UniProt O60884)
T6 construct: endogenous in cells; host or cells: HeLa cell extract

[7] = molecular target: T7, HeLa cell extract proteins (Homo sapiens, UniProt Q9NVI1)
T7 construct: endogenous in cells; host or cells: HeLa cell extract
T7 sequence (Q9NVI1 1-1328): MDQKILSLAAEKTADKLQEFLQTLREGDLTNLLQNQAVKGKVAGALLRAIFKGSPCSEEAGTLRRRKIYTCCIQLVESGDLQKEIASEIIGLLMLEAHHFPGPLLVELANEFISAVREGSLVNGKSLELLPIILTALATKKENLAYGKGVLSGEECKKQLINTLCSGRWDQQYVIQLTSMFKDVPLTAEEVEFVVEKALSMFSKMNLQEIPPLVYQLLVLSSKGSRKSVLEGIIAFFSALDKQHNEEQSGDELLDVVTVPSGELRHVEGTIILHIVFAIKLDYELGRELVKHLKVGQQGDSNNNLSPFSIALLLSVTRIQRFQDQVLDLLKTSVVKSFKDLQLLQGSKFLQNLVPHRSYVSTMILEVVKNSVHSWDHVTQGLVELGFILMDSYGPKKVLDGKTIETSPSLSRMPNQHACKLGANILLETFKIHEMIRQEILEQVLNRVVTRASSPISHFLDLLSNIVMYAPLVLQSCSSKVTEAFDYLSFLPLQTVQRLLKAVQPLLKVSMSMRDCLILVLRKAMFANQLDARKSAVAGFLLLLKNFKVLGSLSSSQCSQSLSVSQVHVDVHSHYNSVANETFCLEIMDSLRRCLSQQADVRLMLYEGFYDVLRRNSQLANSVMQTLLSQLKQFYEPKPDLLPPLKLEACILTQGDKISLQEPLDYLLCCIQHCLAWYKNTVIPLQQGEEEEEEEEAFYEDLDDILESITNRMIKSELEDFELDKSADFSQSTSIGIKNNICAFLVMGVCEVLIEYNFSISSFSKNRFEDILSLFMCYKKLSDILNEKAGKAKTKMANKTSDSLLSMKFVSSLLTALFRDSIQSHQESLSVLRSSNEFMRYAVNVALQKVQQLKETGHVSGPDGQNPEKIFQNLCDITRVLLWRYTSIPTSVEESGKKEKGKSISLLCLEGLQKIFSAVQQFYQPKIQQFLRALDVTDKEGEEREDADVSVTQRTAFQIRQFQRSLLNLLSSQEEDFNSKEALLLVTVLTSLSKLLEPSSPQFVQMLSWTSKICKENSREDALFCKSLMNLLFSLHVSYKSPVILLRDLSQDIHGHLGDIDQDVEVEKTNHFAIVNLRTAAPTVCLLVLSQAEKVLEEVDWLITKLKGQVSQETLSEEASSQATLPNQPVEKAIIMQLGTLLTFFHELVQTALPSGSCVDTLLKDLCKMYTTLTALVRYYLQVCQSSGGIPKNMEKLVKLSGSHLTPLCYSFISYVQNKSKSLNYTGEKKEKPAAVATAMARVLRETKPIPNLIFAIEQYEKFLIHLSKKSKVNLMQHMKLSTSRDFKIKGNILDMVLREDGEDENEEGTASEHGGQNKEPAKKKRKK

[8] = HeLa, protein EPRS (BI[…]-TRNA SYNTHETASE)

T1 sequence (P07814 whole entry): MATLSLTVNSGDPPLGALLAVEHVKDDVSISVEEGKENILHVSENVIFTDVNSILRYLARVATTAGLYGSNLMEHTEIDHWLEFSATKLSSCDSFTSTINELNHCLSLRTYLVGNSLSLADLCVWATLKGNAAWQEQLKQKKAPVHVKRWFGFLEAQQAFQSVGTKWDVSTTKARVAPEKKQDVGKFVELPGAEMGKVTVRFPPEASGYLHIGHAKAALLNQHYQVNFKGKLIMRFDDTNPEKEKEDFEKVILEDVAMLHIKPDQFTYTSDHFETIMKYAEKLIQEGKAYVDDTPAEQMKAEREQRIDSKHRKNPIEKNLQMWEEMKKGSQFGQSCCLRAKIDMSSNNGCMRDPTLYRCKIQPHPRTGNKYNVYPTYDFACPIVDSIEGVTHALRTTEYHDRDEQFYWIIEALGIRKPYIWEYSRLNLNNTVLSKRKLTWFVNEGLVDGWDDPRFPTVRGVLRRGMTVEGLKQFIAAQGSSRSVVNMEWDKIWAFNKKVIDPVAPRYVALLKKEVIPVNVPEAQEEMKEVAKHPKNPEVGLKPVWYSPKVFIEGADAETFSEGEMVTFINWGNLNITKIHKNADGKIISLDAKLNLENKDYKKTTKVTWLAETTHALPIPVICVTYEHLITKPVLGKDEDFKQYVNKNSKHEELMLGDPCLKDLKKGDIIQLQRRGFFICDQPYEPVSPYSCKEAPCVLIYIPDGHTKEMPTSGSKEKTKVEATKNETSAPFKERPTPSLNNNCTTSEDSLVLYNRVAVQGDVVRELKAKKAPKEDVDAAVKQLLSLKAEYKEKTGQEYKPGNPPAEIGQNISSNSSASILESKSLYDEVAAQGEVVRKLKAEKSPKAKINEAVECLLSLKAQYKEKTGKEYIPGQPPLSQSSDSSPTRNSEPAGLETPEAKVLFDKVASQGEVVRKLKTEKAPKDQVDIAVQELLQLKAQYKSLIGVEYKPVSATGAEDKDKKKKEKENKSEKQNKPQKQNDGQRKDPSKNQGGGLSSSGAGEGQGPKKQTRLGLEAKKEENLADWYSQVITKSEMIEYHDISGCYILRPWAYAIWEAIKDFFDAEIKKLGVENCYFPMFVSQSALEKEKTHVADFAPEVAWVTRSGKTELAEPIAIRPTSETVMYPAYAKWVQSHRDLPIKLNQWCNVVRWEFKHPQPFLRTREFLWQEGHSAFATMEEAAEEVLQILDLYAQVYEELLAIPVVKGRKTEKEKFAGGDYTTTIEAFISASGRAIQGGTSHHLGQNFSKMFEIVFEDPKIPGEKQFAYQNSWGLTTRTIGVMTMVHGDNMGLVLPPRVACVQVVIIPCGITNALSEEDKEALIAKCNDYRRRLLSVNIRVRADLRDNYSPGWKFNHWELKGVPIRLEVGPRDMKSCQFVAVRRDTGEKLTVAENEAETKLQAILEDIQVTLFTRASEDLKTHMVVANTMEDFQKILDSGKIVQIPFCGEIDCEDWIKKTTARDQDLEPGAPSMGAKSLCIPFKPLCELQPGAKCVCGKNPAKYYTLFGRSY
T2 sequence (P62820 whole entry): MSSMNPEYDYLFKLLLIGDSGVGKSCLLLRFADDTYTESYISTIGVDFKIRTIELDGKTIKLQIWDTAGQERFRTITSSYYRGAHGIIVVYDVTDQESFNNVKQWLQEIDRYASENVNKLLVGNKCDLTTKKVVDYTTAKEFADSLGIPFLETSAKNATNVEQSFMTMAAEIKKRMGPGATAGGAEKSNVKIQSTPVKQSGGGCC
T6 sequence (O60884 whole entry): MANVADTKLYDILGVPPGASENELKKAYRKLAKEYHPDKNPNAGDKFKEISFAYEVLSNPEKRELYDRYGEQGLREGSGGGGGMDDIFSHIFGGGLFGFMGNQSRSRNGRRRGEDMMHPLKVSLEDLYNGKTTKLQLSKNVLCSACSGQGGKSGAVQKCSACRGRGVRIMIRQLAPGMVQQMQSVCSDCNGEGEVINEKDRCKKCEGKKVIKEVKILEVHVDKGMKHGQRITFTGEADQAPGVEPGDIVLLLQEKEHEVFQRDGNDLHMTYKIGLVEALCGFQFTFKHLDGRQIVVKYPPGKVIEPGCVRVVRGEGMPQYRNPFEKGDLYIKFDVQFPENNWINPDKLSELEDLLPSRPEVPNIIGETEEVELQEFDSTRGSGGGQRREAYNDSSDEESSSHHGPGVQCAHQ
T3 sequence (O43865 whole entry): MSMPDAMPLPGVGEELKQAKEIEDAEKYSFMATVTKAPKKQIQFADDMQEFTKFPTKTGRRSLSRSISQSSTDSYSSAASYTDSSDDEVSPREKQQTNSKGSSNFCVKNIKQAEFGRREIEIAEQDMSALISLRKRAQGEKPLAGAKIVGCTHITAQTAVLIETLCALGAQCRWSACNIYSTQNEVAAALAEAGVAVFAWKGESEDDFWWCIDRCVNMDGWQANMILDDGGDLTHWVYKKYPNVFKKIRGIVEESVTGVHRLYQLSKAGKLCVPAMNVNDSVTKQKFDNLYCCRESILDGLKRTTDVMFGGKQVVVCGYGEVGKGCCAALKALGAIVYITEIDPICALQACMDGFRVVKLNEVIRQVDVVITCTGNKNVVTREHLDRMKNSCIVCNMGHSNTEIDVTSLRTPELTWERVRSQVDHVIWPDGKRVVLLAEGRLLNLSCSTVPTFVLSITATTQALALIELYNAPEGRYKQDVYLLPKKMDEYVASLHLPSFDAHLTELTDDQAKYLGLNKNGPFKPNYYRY

| SMILES | fold changes relative to vehicle control [1, 8] | fold changes relative to vehicle control ([2]; HeLa, protein RAB1A) | fold changes relative to vehicle control ([3]; HeLa, captured protein AHCYL1) | fold changes relative to vehicle control ([4]; HeLa, protein FASTKD1) | fold changes relative to vehicle control ([5]; protein ARL1, HeLa) | fold changes relative to vehicle control ([6]; protein DNAJA2, HeLa) | fold changes relative to vehicle control ([7]; HeLa, protein FANCI) | fold changes relative to vehicle control [1] | fold changes relative to vehicle control [2] | fold changes relative to vehicle control [3] | fold changes relative to vehicle control [4] | fold changes relative to vehicle control [5] | fold changes relative to vehicle control [6] | fold changes relative to vehicle control [7] | fold changes relative to vehicle control ([1]; protein EPRS, HeLa) | fold changes relative to vehicle control ([2]; captured protein RAB1A, HeLa) | fold changes relative to vehicle control ([3]; protein AHCYL1, HeLa) | fold changes relative to vehicle control ([4]; captured protein FASTKD1, HeLa) | fold changes relative to vehicle control ([5]; captured protein ARL1, HeLa) | fold changes relative to vehicle control ([7]; protein FANCI, HeLa) |
| --- | --- | --- | --- | --- | --- | --- | --- | --- | --- | --- | --- | --- | --- | --- | --- | --- | --- | --- | --- | --- |
| Nc1nc2c(c(=O)[nH]1)N(C=O)C(CNc1ccc(C(=O)N[C@@H](CCC(=O)O)C(=O)O)cc1)CN2 (stereo partly shown) [LEU, leucovorin] | 1.11 | 1.2 | 1.12 | 0.85 | 0.8 | 0.86 | 0.87 | – | – | – | – | – | – | – | – | – | – | – | – | – |
| Nc1nc2[nH]cc(CCc3ccc(C(=O)N[C@@H](CCC(=O)O)C(=O)O)cc3)c2c(=O)[nH]1 [PTX, pemetrexed] | – | – | – | – | – | – | – | 1.06 | 1.17 | 1.08 | 0.83 | 0.77 | 0.9 | 1.04 | – | – | – | – | – | – |
| CCCCCCOc1ccc(Cc2cnc(N)nc2N)cc1 [compound 1] | – | – | – | – | – | 0.92 | – | – | – | – | – | – | – | – | 1.06 | 0.74 | 1.1 | 0.96 | 0.95 | 1 |
| CCCCCCOc1cccc(Cc2cnc(N)nc2N)c1 [compound 2] | – | – | – | – | – | 1.14 | – | – | – | – | – | – | – | – | 1.25 | 1.19 | 1.59 | 1.08 | 1.09 | 1.02 |
| Nc1nc2cccc(-c3ccccc3)c2n1Cc1ccc(Cl)c(Cl)c1 [compound 3] | – | – | – | – | – | 0.95 | – | – | – | – | – | – | – | – | 1.13 | 0.91 | 0.94 | 0.98 | 1.06 | 1.19 |
| NCCOCCOCC(=O)Nc1nc2ncc(CNc3ccc(C(=O)NC(CCC(=O)O)C(=O)O)cc3)nc2c(=O)[nH]1 (stereo not shown) [compound 6] | 1.19 | 1.21 | 1.25 | 0.87 | 0.9 | 1.01 | 1.11 | – | – | – | – | – | – | – | – | – | – | – | – | – |
| NCCCNc1ccc(C(=O)NC(CCC(=O)O)C(=O)O)cc1 (stereo not shown) [compound 7] | 1.09 | 1.07 | 1.03 | 0.84 | 1.06 | 0.91 | 1.09 | – | – | – | – | – | – | – | – | – | – | – | – | – |
